Experimental data reported in patent US12226412B2, “Heteroaryl-ketone fused azadecalin glucocorticoid receptor modulators” (Corcept Therapeutics, Inc., priority 2012, dated 2025).
Where two headings read alike, the source gives them in different places.

Columns and labels:
human recombinant GR = molecular target: T1, human recombinant GR (Homo sapiens, UniProt P04150); assay: Human glucocorticoid receptor (GR) fluorescence polarisation (FP) binding assay
T1 construct: purchased PanVera P2812
T1 sequence (P04150 1-777): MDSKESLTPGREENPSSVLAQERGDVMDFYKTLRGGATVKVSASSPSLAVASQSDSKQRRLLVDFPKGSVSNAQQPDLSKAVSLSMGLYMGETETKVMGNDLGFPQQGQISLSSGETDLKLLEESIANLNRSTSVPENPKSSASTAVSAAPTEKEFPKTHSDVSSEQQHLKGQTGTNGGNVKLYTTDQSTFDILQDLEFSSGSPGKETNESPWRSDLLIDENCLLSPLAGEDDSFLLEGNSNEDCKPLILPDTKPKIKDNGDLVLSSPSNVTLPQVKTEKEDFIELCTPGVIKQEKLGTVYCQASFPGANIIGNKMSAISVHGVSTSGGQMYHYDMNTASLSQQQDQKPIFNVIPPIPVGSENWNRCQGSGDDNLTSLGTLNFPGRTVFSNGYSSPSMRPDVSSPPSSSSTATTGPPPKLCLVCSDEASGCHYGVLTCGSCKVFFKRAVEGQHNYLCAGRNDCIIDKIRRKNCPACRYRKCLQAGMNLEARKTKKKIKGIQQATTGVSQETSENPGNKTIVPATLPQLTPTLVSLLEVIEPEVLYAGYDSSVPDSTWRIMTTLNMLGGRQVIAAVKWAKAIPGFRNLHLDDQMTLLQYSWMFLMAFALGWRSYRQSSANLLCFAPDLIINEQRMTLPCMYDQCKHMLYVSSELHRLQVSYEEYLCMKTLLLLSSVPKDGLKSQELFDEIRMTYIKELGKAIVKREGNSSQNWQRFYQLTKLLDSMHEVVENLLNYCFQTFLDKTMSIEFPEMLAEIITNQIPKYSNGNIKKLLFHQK
How it was run: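 Competition fluorescence polarisation: 0.5 nM GS Red labelled glucocorticoid and 1 nM recombinant human GR with 8-point half-log compound series, 1% DMSO, 4 h room temperature, potassium phosphate pH 7.4 buffer with molybdate, EDTA, DTT. Affinity derived from the drop in polarisation, normalised to blank wells.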

[1] = test system: induction of TAT by dexamethasone in HepG2 cells; assay: HepG2 tyrosine aminotransferase (TAT) assay; format: cell-based, human
[2] = human recombinant GR, fluorescence polarisation binding assay, read-out: GR binding
[3] = HepG2 cells, challenge of 100 nM dexamethasone, Ki from IC50 by Cheng and Prusoff equation

Row | Ki (human recombinant GR; [2]) [nM] | SMILES | Ki [1, 3] [nM] | Ki (human recombinant GR) [nM] | Ki [1] [nM]
1 | < 0.5 | Cc1ccnc(C(=O)[C@]23Cc4cnn(-c5ccc(F)cc5)c4C=C2CCN(S(=O)(=O)c2cccc(C(F)(F)F)n2)C3)c1 [Example 11AE, (R)-(1-(4-fluorophenyl)-6-((6-(trifluoromethyl)pyridin-2-yl)sulfonyl)-4,4a,5,6,7,8-hexahydro-1H-pyrazolo[3,4-g]isoquinolin-4a-yl)(4-methylpyridin-2-yl)methanone] | < 20 |  | 
2 | < 0.5 | CCCn1cc(S(=O)(=O)N2CCC3=Cc4c(cnn4-c4ccc(F)cc4)C[C@]3(C(=O)c3cscn3)C2)cn1 [Example 11CZ, (R)-(1-(4-fluorophenyl)-6-((1-propyl-1H-pyrazol-4-yl)sulfonyl)-4,4a,5,6,7,8-hexahydro-1H-pyrazolo[3,4-g]isoquinolin-4a-yl)(thiazol-4-yl)methanone] | < 20 |  | 
3 | < 0.5 | CCc1ccnc(C(=O)[C@]23Cc4cnn(-c5ccc(F)cc5)c4C=C2CCN(S(=O)(=O)c2cccc(C(F)(F)F)n2)C3)c1 [Example 11AV, (R)-(4-ethylpyridin-2-yl) (1-(4-fluorophenyl)-6-((6-(trifluoromethyl)pyridin-2-yl)sulfonyl)-4,4a,5,6,7,8-hexahydro-1H-pyrazolo [3,4-g]isoquinolin-4a-yl)methanone] | < 20 |  | 
4 | < 0.5 | Cc1ccnc(C(=O)[C@]23Cc4cnn(-c5ccc(F)cc5)c4C=C2CCN(S(=O)(=O)c2c(C)noc2C)C3)c1 [Example 11AX, (R)-(6-((3,5-dimethylisoxazol-4-yl)sulfonyl)-1-(4-fluorophenyl)-4,4a,5,6,7,8-hexahydro-1H-pyrazolo[3,4-g]isoquinolin-4a-yl)(4-methylpyridin-2-yl)methanone] | 20 to 100 |  | 
5 | > 1 | Cn1cc(C(=O)[C@]23Cc4cnn(-c5ccc(F)cc5)c4C=C2CCN(S(=O)(=O)c2ccc(Cl)c(Cl)c2)C3)cn1 [Example 11CC, (R)-(6-((3,4-dichlorophenyl)sulfonyl)-1-(4-fluorophenyl)-4,4a,5,6,7,8-hexahydro-1H-pyrazolo[3,4-g]isoquinolin-4a-yl)(1-methyl-1H-pyrazol-4-yl)methanone] | 20 to 100 |  | 
6 | > 1 | O=C(c1cc(C(F)(F)F)ccn1)[C@]12Cc3cnn(-c4ccc(F)cc4)c3C=C1CCN(S(=O)(=O)c1c[nH]cn1)C2 [Example 2W, (R)-(6-((1H-imidazol-4-yl)sulfonyl)-1-(4-fluorophenyl)-4,4a,5,6,7,8-hexahydro-1H-pyrazolo[3,4-g]isoquinolin-4a-yl)(4-(trifluoromethyl)pyridin-2-yl)methanone] | 20 to 100 |  | 
7 | < 0.5 | O=C(c1ccccn1)[C@]12Cc3cnn(-c4ccc(F)cc4)c3C=C1CCN(S(=O)(=O)c1ccc(F)c(F)c1F)C2 [Example 11AC, (R)-(1-(4-fluorophenyl)-6-((2,3,4-trifluorophenyl)sulfonyl)-4,4a,5,6,7,8-hexahydro-1H-pyrazolo[3,4-g]isoquinolin-4a-yl)(pyridin-2-yl)methanone] | < 20 |  | 
8 | < 0.5 | Cc1cccc(S(=O)(=O)N2CCC3=Cc4c(cnn4-c4ccc(F)cc4)C[C@]3(C(=O)c3ncco3)C2)c1 [Example 1I, (R)-(1-(4-fluorophenyl)-6-(m-tolylsulfonyl)-4,4a,5,6,7,8-hexahydro-1H-pyrazolo[3,4-g]isoquinolin-4a-yl)(oxazol-2-yl)methanone] | 20 to 100 |  | 
9 | < 0.5 | CCn1cc(S(=O)(=O)N2CCC3=Cc4c(cnn4-c4ccc(F)cc4)C[C@]3(C(=O)c3ccccn3)C2)cn1 [Example 11AY, (R)-(6-((1-ethyl-1H-pyrazol-4-yl)sulfonyl)-1-(4-fluorophenyl)-4,4a,5,6,7,8-hexahydro-1H-pyrazolo[3,4-g]isoquinolin-4a-yl)(pyridin-2-yl)methanone] | 20 to 100 |  | 
10 | < 0.5 | CCCn1ncc(S(=O)(=O)N2CCC3=Cc4c(cnn4-c4ccc(F)cc4)C[C@]3(C(=O)c3cscn3)C2)n1 [Example 11CQ, (R)-(1-(4-fluorophenyl)-6-((2-propyl-2H-1,2,3-triazol-4-yl)sulfonyl)-4,4a,5,6,7,8-hexahydro-1H-pyrazolo[3,4-g]isoquinolin-4a-yl)(thiazol-4-yl)methanone] | < 20 |  | 
11 | > 1 | Cc1ncc(S(=O)(=O)N2CCC3=Cc4c(cnn4-c4ccc(F)cc4)C[C@]3(C(=O)c3cc(C(F)(F)F)ccn3)C2)n1C [Example 11BW, (R)-(6-((1,2-dimethyl-1H-imidazol-5-yl)sulfonyl)-1-(4-fluorophenyl)-4,4a,5,6,7,8-hexahydro-1H-pyrazolo[3,4-g]isoquinolin-4a-yl)(4-(trifluoromethyl)pyridin-2-yl)methanone] | 20 to 100 |  | 
12 | < 0.5 | Cc1cccc(S(=O)(=O)N2CCC3=Cc4c(cnn4-c4ccc(F)cc4)C[C@]3(C(=O)c3cccc(C)n3)C2)c1 [Example 12H, (R)-(1-(4-fluorophenyl)-6-(m-tolylsulfonyl)-4,4a,5,6,7,8-hexahydro-1H-pyrazolo[3,4-g]isoquinolin-4a-yl)(6-methylpyridin-2-yl)methanone] | < 20 |  | 
13 | 0.5 to 1 | CCCn1ncc(S(=O)(=O)N2CCC3=Cc4c(cnn4-c4ccc(F)cc4)C[C@]3(C(=O)c3cc(C(F)(F)F)ccn3)C2)n1 (single isomer, unassigned) [Example 11DC] | < 20 |  | 
14 |  | O=C(c1nccs1)[C@]12Cc3cnn(-c4ccc(F)cc4)c3C=C1CCN(S(=O)(=O)c1ccc(C(F)(F)F)cc1)C2 [Example 1C, (R)-(1-(4-fluorophenyl)-6-((4-(trifluoromethyl)phenyl)sulfonyl)-4,4a,5,6,7,8-hexahydro-1H-pyrazolo[3,4-g]isoquinolin-4a-yl)(thiazol-2-yl)methanone] |  | < 0.5 | < 20
15 | < 0.5 | Cc1cccc(S(=O)(=O)N2CCC3=Cc4c(cnn4-c4ccc(F)cc4)C[C@]3(C(=O)c3cscn3)C2)c1 [Example 11F, (R)-(1-(4-fluorophenyl)-6-(m-tolylsulfonyl)-4,4a,5,6,7,8-hexahydro-1H-pyrazolo [3,4-g]isoquinolin-4a-yl)(thiazol-4-yl)methanone] | 20 to 100 |  | 
16 | < 0.5 | CCCn1cc(S(=O)(=O)N2CCC3=Cc4c(cnn4-c4ccc(F)cc4)C[C@]3(C(=O)c3cc(C(F)(F)F)ccn3)C2)cn1 [Example 11CX, (R)-(1-(4-fluorophenyl)-6-((1-propyl-1H-pyrazol-4-yl)sulfonyl)-4,4a,5,6,7,8-hexahydro-1H-pyrazolo[3,4-g]isoquinolin-4a-yl)(4-(trifluoromethyl)pyridin-2-yl)methanone] | < 20 |  | 
17 |  | O=C(c1ccccn1)[C@]12Cc3cnn(-c4ccc(F)cc4)c3C=C1CCN(S(=O)(=O)c1cccc(Cl)c1)C2 [Example 2F, (R)-(6-((3-chlorophenyl)sulfonyl)-1-(4-fluorophenyl)-4,4a,5,6,7,8-hexahydro-1H-pyrazolo[3,4-g]isoquinolin-4a-yl)(pyridin-2-yl)methanone] |  | < 0.5 | < 20
18 | < 0.5 | O=C(c1ccccn1)[C@]12Cc3cnn(-c4ccccc4)c3C=C1CCN(S(=O)(=O)c1ccc(Cl)c(Cl)c1)C2 [Example 15B, (R)-(6-((3,4-dichlorophenyl)sulfonyl)-1-phenyl-4,4a,5,6,7,8-hexahydro-1H-pyrazolo[3,4-g]isoquinolin-4a-yl)(pyridin-2-yl)methanone] | < 20 |  | 
19 | > 1 | O=C(c1ccccn1)[C@]12Cc3cnn(-c4ccc(F)cc4)c3C=C1CCN(S(=O)(=O)C1CCCCC1)C2 [Example 2T, (R)-(6-(cyclohexylsulfonyl)-1-(4-fluorophenyl)-4,4a,5,6,7,8-hexahydro-1H-pyrazolo [3,4-g]isoquinolin-4a-yl)(pyridin-2-yl)methanone] | ≥ 100 |  | 
20 | > 1 | O=C(c1ccnc(N2CCCC2)c1)[C@]12Cc3cnn(-c4ccc(F)cc4)c3C=C1CCN(S(=O)(=O)c1ccc(F)c(F)c1)C2 [Example 11BH, (R)-(6-((3,4-difluorophenyl)sulfonyl)-1-(4-fluorophenyl)-4,4a,5,6,7,8-hexahydro-1H-pyrazolo[3,4-g]isoquinolin-4a-yl)(2-(pyrrolidin-1-yl)pyridin-4-yl)methanone] | ≥ 100 |  | 
21 | < 0.5 | COCc1cccc(S(=O)(=O)N2CCC3=Cc4c(cnn4-c4ccc(F)cc4)C[C@]3(C(=O)c3ccccn3)C2)c1 [Example 11AA, (R)-(1-(4-fluorophenyl)-6-((3-(methoxymethyl)phenyl)sulfonyl)-4,4a,5,6,7,8-hexahydro-1H-pyrazolo[3,4-g]isoquinolin-4a-yl)(pyridin-2-yl)methanone] | 20 to 100 |  | 
